IC50 data for 23 compounds are collected here from patent US12662490B2, “Heterocyclic compounds” (Hoffmann-La Roche Inc., priority 2019, dated 2026).

The target of this experiment is T1, MAGL (Homo sapiens, UniProt Q99685).
T1 sequence (Q99685 1-303): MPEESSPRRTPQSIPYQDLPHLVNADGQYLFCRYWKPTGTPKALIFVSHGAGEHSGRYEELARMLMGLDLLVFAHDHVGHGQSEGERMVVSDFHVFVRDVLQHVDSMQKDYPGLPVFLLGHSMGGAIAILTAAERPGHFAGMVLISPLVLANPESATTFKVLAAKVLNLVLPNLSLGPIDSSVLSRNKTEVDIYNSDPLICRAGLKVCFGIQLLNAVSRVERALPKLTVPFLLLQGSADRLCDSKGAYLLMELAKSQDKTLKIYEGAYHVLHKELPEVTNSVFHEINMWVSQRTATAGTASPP
The experiment is described as follows: 2-AG assay (MAGL inhibitory activity; hydrolysis of 2-arachidonoylglycerol to arachidonic acid followed by mass spectrometry). The settings on record: 15 min preincubation at RT, 8 μM 2-arachidonoylglycerol, 30 min at RT, RapidFire MS readout. It is filed as biochemical. Here is the method:
Compounds were profiled for MAGL inhibitory activity by determining the enzymatic activity by following the hydrolysis of the natural substrate 2-arachidonoylglycerol (2-AG) resulting in arachidonic acid, which can be followed by mass spectrometry. This assay is hereinafter abbreviated “2-AG assay”.
The 2-AG assay was carried out in 384 well assay plates (PP, Greiner Cat #784201) in a total volume of 20 μL. Compound dilutions were made in […] (VWR Chemicals 23500.297) in a polypropylene plate in 3-fold dilution steps to give a final concentration range in the assay from 12.5 μM to […]. 0.25 μL compound dilutions (100% DMSO) were added to 9 μL MAGL in assay buffer (50 mM TRIS (GIBCO, 15567-027), 1 mM EDTA (Fluka, 03690-100 mL), 0.010 (v/v) Tween. After shaking, the plate was incubated for 15 min at RT. To start the reaction, 10 μL 2-arachidonoylglycerol in assay buffer was added. The final concentrations in the assay was […] and 8 μM 2-arachidonoylglyerol. After shaking and 30 min incubation at RT, the reaction was quenched by the addition of 40 μL of ACN containing 4 μM of d8-arachidonic acid. The amount of arachidonic acid was traced by an online SPE system (Agilent Rapidfire) coupled to a triple quadrupole mass spectrometer (Agilent 6460). A C18 SPE cartridge (G9205A) was used in an ACN/water liquid setup. The mass spectrometer was operated in negative electrospray mode following the mass transitions 303.1→259.1 for arachidonic acid and 311.1→267.0 for d8-arachidonic acid. The activity of the compounds was calculated based on the ratio of intensities [arachidonic acid/d8-arachidonic acid].
In the case of `COc1cccc(C(=O)N2CCN3C[C@@H](c4ccc(F)c(Br)c4)OC[C@@H]3C2)c1Cl` [Example 6, [(3R,9aS)-3-(3-bromo-4-fluoro-phenyl)-3,4,6,7,9,9a-hexahydro-1H-pyrazino[2,1-c][1,4]oxazin-8-yl]-(2-chloro-3-methoxy-phenyl)methanone], the IC50 (commonly the point on the concentration scale where inhibition reaches its midpoint) amounted to 10.9 nM.

For `O=C(c1cnc2[nH]ncc2c1Cl)N1CCN2C[C@@H](c3ccc(F)c(Cl)c3)OC[C@@H]2C1` [Example 8, [(3R,9aS)-3-(3-chloro-4-fluoro-phenyl)-3,4,6,7,9,9a-hexahydro-1H-pyrazino[2,1-c][1,4]oxazin-8-yl]-(4-chloro-1H-pyrazolo[3,4-b]pyridin-5-yl)methanone], half-maximal inhibition (IC50) was put at 705 nM.

For `COc1cccc(C(=O)N2CCN3C[C@@H](c4ccc(F)c(Cl)c4)OC[C@@H]3C2)c1F` [Example 9, [(3R,9aS)-3-(3-chloro-4-fluoro-phenyl)-3,4,6,7,9,9a-hexahydro-1H-pyrazino[2,1-c][1,4]oxazin-8-yl]-(2-fluoro-3-methoxy-phenyl)methanone], half-maximal inhibition (IC50) required 85.6 nM.

Compound `COc1cccc(C(=O)N2CCN3C[C@@H](c4ccc(F)c(-c5ccccc5)c4)OC[C@@H]3C2)c1Cl` [Example 11, [(3R,9aS)-3-(4-fluoro-3-phenyl-phenyl)-3,4,6,7,9,9a-hexahydro-1H-pyrazino[2,1-c][1,4]oxazin-8-yl]-(2-chloro-3-methoxy-phenyl)methanone] came in with an IC50 of 259 nM.

In turn, `COc1cccc(C(=O)N2CCN3C[C@H](c4ccc(F)c(-c5ccccc5)c4)OC[C@@H]3C2)c1Cl` [Example 12, [(3S,9aS)-3-(4-fluoro-3-phenyl-phenyl)-3,4,6,7,9,9a-hexahydro-1H-pyrazino[2,1-c][1,4]oxazin-8-yl]-(2-chloro-3-methoxy-phenyl)methanone] had a half-inhibitory concentration (IC50) of 575 nM.

Regarding `CC#Cc1cc([C@@H]2CN3CCN(C(=O)c4cccc(OC)c4Cl)C[C@H]3CO2)ccc1F` [Example 13, [(3R,9aS)-3-(4-fluoro-3-prop-1-ynyl-phenyl)-3,4,6,7,9,9a-hexahydro-1H-pyrazino[2,1-c][1,4]oxazin-8-yl]-(2-chloro-3-methoxy-phenyl)methanone], inhibition was half-maximal at 238 nM (IC50).

Take `COc1cccc(C(=O)N2CCN3C[C@@H](c4ccc(F)c(C#N)c4)OC[C@@H]3C2)c1Cl` [Example 14, [(3R,9aS)-3-(3-cyano-4-fluoro-phenyl)-3,4,6,7,9,9a-hexahydro-1H-pyrazino[2,1-c][1,4]oxazin-8-yl]-(2-chloro-3-methoxy-phenyl)methanone]: the half-maximal inhibitory concentration (IC50) stood at 154 nM.

Compound `O=C(c1cnc2ccccc2c1Cl)N1CCN2C[C@@H](c3ccc(F)c(Cl)c3)OC[C@@H]2C1` [Example 16, [(3R,9aS)-3-(3-chloro-4-fluoro-phenyl)-3,4,6,7,9,9a-hexahydro-1H-pyrazino[2,1-c][1,4]oxazin-8-yl]-(4-chloro-3-quinolyl)methanone] gave a half-maximal inhibitory concentration (IC50) of 132 nM.

`COc1cc(OC)c(Cl)c(C(=O)N2CCN3C[C@H](c4ccc(F)c(Cl)c4)OC[C@@H]3C2)c1` [Example 17, [(3S,9aS)-3-(3-chloro-4-fluoro-phenyl)-3,4,6,7,9,9a-hexahydro-1H-pyrazino[2,1-c][1,4]oxazin-8-yl]-(2-chloro-3,5-dimethoxy-phenyl)methanone] returned an IC50 of 4570 nM.

The compound `COc1cc(OC)c(Cl)c(C(=O)N2CCN3C[C@@H](c4ccc(F)c(Cl)c4)OC[C@@H]3C2)c1` [Example 18, [(3R,9aS)-3-(3-chloro-4-fluoro-phenyl)-3,4,6,7,9,9a-hexahydro-1H-pyrazino[2,1-c][1,4]oxazin-8-yl]-(2-chloro-3,5-dimethoxy-phenyl)methanone] came in with an IC50 of 51.2 nM.

Compound `COc1ccc(C(=O)N2CCN3C[C@@H](c4ccc(F)c(Cl)c4)OC[C@@H]3C2)c(Cl)c1OC` [Example 19, [(3R,9aS)-3-(3-chloro-4-fluoro-phenyl)-3,4,6,7,9,9a-hexahydro-1H-pyrazino[2,1-c][1,4]oxazin-8-yl]-(2-chloro-3,4-dimethoxy-phenyl)methanone] returned an IC50 of 305 nM.

Consider `Cc1cccc(C(=O)N2CCN3C[C@@H](c4ccc(F)c(Cl)c4)OC[C@@H]3C2)c1C#N` [Example 20, 2-[(3R,9aS)-3-(3-chloro-4-fluoro-phenyl)-3,4,6,7,9,9a-xahydro-1H-pyrazino[2,1-c][1,4]oxazine-8-carbonyl]-6-methyl-benzonitrile], for which the IC50 is 121 nM.

Compound `O=C(c1cccc(OC(F)(F)F)c1F)N1CCN2C[C@@H](c3ccc(F)c(Cl)c3)OC[C@@H]2C1` [Example 21, [(3R,9aS)-3-(3-chloro-4-fluoro-phenyl)-3,4,6,7,9,9a-hexahydro-1H-pyrazino[2,1-c][1,4]oxazin-8-yl]-[2-fluoro-3-(trifluoromethoxy)phenyl]methanone] gave an IC50 of 746 nM.

`O=C(c1cccc(-c2ccccc2)c1Cl)N1CCN2C[C@@H](c3ccc(F)c(Cl)c3)OC[C@@H]2C1` [Example 22, [(3R,9aS)-3-(3-chloro-4-fluoro-phenyl)-3,4,6,7,9,9a-hexahydro-1H-pyrazino[2,1-c][1,4]oxazin-8-yl]-(2-chloro-3-phenyl-phenyl)methanone] returned a 50% inhibitory concentration (IC50) of 16.1 nM.

`COc1ccccc1-c1cccc(C(=O)N2CCN3C[C@@H](c4ccc(F)c(Cl)c4)OC[C@@H]3C2)c1Cl` [Example 23, [(3R,9aS)-3-(3-chloro-4-fluoro-phenyl)-3,4,6,7,9,9a-hexahydro-1H-pyrazino[2,1-c][1,4]oxazin-8-yl]-[2-chloro-3-(2-methoxyphenyl)phenyl]methanone] returned a 50% inhibitory concentration (IC50) of 26.3 nM.

`COc1cccc(C(=O)N2CCN3C[C@@H](c4ccc(F)c(C5CC5)c4)OC[C@@H]3C2)c1Cl` [Example 24, [(3R,9aS)-3-(3-cyclopropyl-4-fluoro-phenyl)-3,4,6,7,9,9a-hexahydro-1H-pyrazino[2,1-c][1,4]oxazin-8-yl]-(2-chloro-3-methoxy-phenyl)methanone] returned an IC50 of 94.8 nM.

On to `O=C(c1cccc(OC(F)F)c1Cl)N1CCN2C[C@@H](c3ccc(F)c(Cl)c3)OC[C@@H]2C1` [Example 25, [(3R,9aS)-3-(3-chloro-4-fluoro-phenyl)-3,4,6,7,9,9a-hexahydro-1H-pyrazino[2,1-c][1,4]oxazin-8-yl]-[2-chloro-3-(difluoromethoxy)phenyl]methanone], for which the IC50 was determined as 131 nM.

`Cc1[nH]ncc1-c1cccc(C(=O)N2CCN3C[C@@H](c4ccc(F)c(Cl)c4)OC[C@@H]3C2)c1Cl` [Example 26, [(3R,9aS)-3-(3-chloro-4-fluoro-phenyl)-3,4,6,7,9,9a-hexahydro-1H-pyrazino[2,1-c][1,4]oxazin-8-yl]-[2-chloro-3-(5-methyl-1H-pyrazol-4-yl)phenyl]methanone] returned an IC50 of 10.6 nM.

The compound `Cc1ccncc1-c1cccc(C(=O)N2CCN3C[C@@H](c4ccc(F)c(Cl)c4)OC[C@@H]3C2)c1Cl` [Example 27, [(3R,9aS)-3-(3-chloro-4-fluoro-phenyl)-3,4,6,7,9,9a-hexahydro-1H-pyrazino[2,1-c][1,4]oxazin-8-yl]-[2-chloro-3-(4-methyl-3-pyridyl)phenyl]methanone] came in with an IC50 of 210 nM.

In turn, `Cc1cnccc1-c1cccc(C(=O)N2CCN3C[C@@H](c4ccc(F)c(Cl)c4)OC[C@@H]3C2)c1Cl` [Example 28, [(3R,9aS)-3-(3-chloro-4-fluoro-phenyl)-3,4,6,7,9,9a-hexahydro-1H-pyrazino[2,1-c][1,4]oxazin-8-yl]-[2-chloro-3-(3-methyl-4-pyridyl)phenyl]methanone] gave an IC50 of 32.6 nM.

`O=C(c1cccc(-c2ccnnc2)c1Cl)N1CCN2C[C@@H](c3ccc(F)c(Cl)c3)OC[C@@H]2C1` [Example 29, [(3R,9aS)-3-(3-chloro-4-fluoro-phenyl)-3,4,6,7,9,9a-hexahydro-1H-pyrazino[2,1-c][1,4]oxazin-8-yl]-(2-chloro-3-pyridazin-4-yl-phenyl)methanone] had a half-maximal inhibitory concentration (IC50) of 202 nM.

`O=C(c1cccc(-c2ccccn2)c1Cl)N1CCN2C[C@@H](c3ccc(F)c(Cl)c3)OC[C@@H]2C1` [Example 30, [(3R,9aS)-3-(3-chloro-4-fluoro-phenyl)-3,4,6,7,9,9a-hexahydro-1H-pyrazino[2,1-c][1,4]oxazin-8-yl]-[2-chloro-3-(2-pyridyl)phenyl]methanone] showed an IC50 of 49.2 nM.

`O=C(c1cccc(-c2cccnn2)c1Cl)N1CCN2C[C@@H](c3ccc(F)c(Cl)c3)OC[C@@H]2C1` [Example 31, [(3R,9aS)-3-(3-chloro-4-fluoro-phenyl)-3,4,6,7,9,9a-hexahydro-1H-pyrazino[2,1-c][1,4]oxazin-8-yl]-(2-chloro-3-pyridazin-3-yl-phenyl)methanone]: the IC50 is 173 nM.
